This note sets out measurements from patent US11084783B2, “O-alkyl-benzylideneguanidine derivatives and therapeutic use for the treatment of disorders associated with an accumulation of misfolded proteins” (INFLECTIS BIOSCIENCE, priority 2014, dated 2021).

The test system of assay [1] is mouse embryonic fibroblasts lipofected with poly I:C. The experiment in a line: In vitro inflammation/infection model: poly I:C induced mouse embryonic fibroblasts. Particulars: 25 μM, 6h, IFN-beta ELISA in culture supernatants. Format: cell-based. As for the experimental part:
Mouse Embryonic Fibroblasts (MEFs) were lipofected with poly I:C and treated with […] compounds of the invention (25 μM) for 6h. After 6h of culture, elF2alpha-phosphorylation (elF2a-P) and PPP1R15A (GADD34) expression was monitored by western blotting, while type-1 Interferon(IFN)-beta production was quantified in culture supernatants by ELISA. Control (nt) and poly I:C/DMSO are respectively negative and positive controls. Poly I:C (polyinosinic:polycytidylic acid or polyinosinic-polycytidylic acid sodium salt) is an immunostimulant used to simulate viral infections. Poly I:C which is structurally similar to double-stranded RNA, is known to interact with toll-like receptor 3 which is expressed in the intracellular compartments of B-cells and dendritic cells. Guanabenz (25 μM) was used as reference inhibitory compound.
MEFs were cultured in DMEM, 10% FCS (HyClone, Perbio), 100 units/ml penicillin, 100 μg/ml streptomycin, 2 mM glutamine, 1× MEM non-essential amino acids and 50 μM 2-mercaptoethanol. MEFS were treated for the indicated time with 10 μg/ml poly I:C (InvivoGen) in combination with lipofectamine 2000 (Invitrogen).
Cells were lysed in 1% Triton X-100, 50 mM Hepes, 10 mM NaCl, 2.5 mM MgCl2, 2 mM EDTA, 10% glycerol, supplemented with Complete Mini Protease Inhibitor Cocktail Tablets (Roche). Protein quantification was performed using the BCA Protein Assay (Pierce). 25-50 μg of Triton X-100-soluble material was loaded on 2%-12% gradient or 8% SDS-PAGE before immunoblotting and chemi-luminescence detection (SuperSignal West Pico Chemi-luminescent Substrate, Pierce). Rabbit polyclonal antibodies recognizing GADD34 (C-19) were from Santa Cruz Biotechnology and anti-elF2alpha[pS^52] were from Invitrogen.
IFN-beta quantification in culture supernatant was performed using the Mouse Interferon Beta ELISA kit (PBL Interferon Source) according to manufacturer instructions.
Normal response of MEFs to poly I:C is characterized by PPP1R15A expression, increase in elF2alpha-P (variable in time and related to the levels PPP1R15A expression) mediated by PKR activation and type-I IFN production (range 500 to 700 pg/ml). Knock out PPP1R15A MEFs are unable to produce this cytokine in response to poly I:C.
The potency of compounds of the invention to inhibit PPP1R15A was evaluated by measuring the increase of elF2alpha phosphorylation, the decrease of PPP1R15A expression due to its own pharmacological inhibition resulting in general protein synthesis inhibition and type-I IFN production.
A general note: ELISA stands for enzyme-linked immunosorbent assay.

In assay [2] the test system is HeLa cells. The experiment in a line: Cytoprotection from ER stress (tunicamycin), cell viability by WST-8. The note with it: for Cytoprotection from ER stress compared to guanabenz: HeLa cells, 6 hour exposure to tunicamycin 5 μg/mL, compounds 0.5-10 μM, viability 48 h or 72 h. Format: cell-based. Also on record: key to Cytoprotection from ER stress compared to guanabenz: +: lower cytoprotective effect compared to Guanabenz; ++: similar cytoprotective effect compared to Guanabenz; +++: higher cytoprotective effect compared to Guanabenz. An excerpt:
Cytoprotection against ER stress can be measured by a suitable assay. For example, cytoprotection can be measured in HeLa cells in which ER stress is elicited by the addition of media containing tunicamycin, a mixture of homologous nucleoside antibiotics that inhibits the UDP-HexNAc: polyprenol-P HexNAc-1-P family of enzymes and is used to induce unfolded protein response. Cell viability can be detected in the presence and absence of inhibitor compounds after a set period of time, by measuring the reduction of WST-8 into formazan using a standard cell viability kit (such as Cell Viability Counting Kit-8 from Dojindo). Cytoprotection from ER stress is measured in terms of the percentage increase in viable cells (relative to control) after ER stress. Further details of a suitable assay are set forth in the accompanying Examples section.
This assay is described in Tsaytler et al. (Science 2011). HeLa Cells were cultured in Eagle's Minimum Essential Medium (EMEM) supplemented with Glutamine, Sodium Pyruvate, Non-Essential Amino Acids, Penicillin and Streptomycin containing 10% Foetal Bovine Serum (FBS), at 37° C. in 5% CO2 atmosphere. Cells were plated in 96 well plates at a density of 17,000 cells/mL the day before the treatment. ER stress was elicited by addition of 5 μg/mL tunicamycin (Sigma-Aldrich) together with PPP1R15A inhibitors (0.5-10 μM). Media were changed 6h later with fresh media and the cytoprotection was maintained by the addition of PPP1R15A inhibitors (0.5-10 μM). Cell viability was assessed by measuring the reduction of WST-8 into formazan using Cell Counting Kit-8 (Sigma) according to the supplier's recommendation, 48 h or 72h after tunicamycin treatment. Cytoprotection from ER stress is measured in terms of cytoprotective potency effect compared to the reference compound Guanabenz (Tsaytler et al., Science 2011) after ER stress: • ‘+’ no cytoprotective effect; • ‘+’ lower cytoprotective effect compared to Guanabenz; • ‘++’ similar cytoprotective effect compared to Guanabenz; • ‘+++’ higher cytoprotective effect compared to Guanabenz.
Table 1 summarizes the results of cytoprotective effect of different compounds of the invention, compared to guanabenz, after the stress induced by a 6 hour exposure of tunicamycin.
Background: Formazan colour is commonly taken as a measure of viable cells.

`CCCONC(=N)N/N=C/c1ccccc1Cl` [Compound 12, 2-(2-chlorobenzylidene)-N-propoxyhydrazinecarboximidamide]: the “prevention of type-I IFN production (FIG. 9)” value in assay [1] is given as “prevent type-I IFN production”. Also, the “protection of Hela cells from ER stress (FIG. 1)” value in assay [2] (ER stress induced by 6 hour exposure to tunicamycin) is recorded as “dose dependent protection”. In addition, the “Cytoprotection from ER stress compared to guanabenz” value in assay [2] was “+++”.
In the case of `CCONC(=N)N/N=C/c1c(F)cccc1Cl` [Compound 17, 2-(2-chloro-6-fluorobenzylidene)-N-ethoxyhydrazinecarboximidamide], the “prevention of type-I IFN production (FIG. 9)” value in assay [1] was “prevent type-I IFN production”. For the same compound, the “Cytoprotection from ER stress compared to guanabenz” value in assay [2] is listed as “+++”.
For `CCONC(=N)N/N=C/c1c(Cl)cccc1Cl` [Compound 11, 2-(2,6-dichlorobenzylidene)-N-ethoxyhydrazinecarboximidamide] the same measures were “prevent type-I IFN production” and “+++”.
On the same counts, the results for `CCO/N=C(\N)N/N=C/c1ccccc1Cl` [Compound 10, 2-(2-chlorobenzylidene)-N′-ethoxyhydrazinecarboximidamide] are “prevent type-I IFN production” and “++”.
